Source: US20250186404A1, “METHODS OF USING A (THIAZOLYL)BENZENESULFONAMIDE DERIVATIVE” (Cyteir Therapeutics, Inc., priority 2023, published 2025)
pEC50, pIC50, pKd: −log10 of the molar value.

Tests used:
[1] = tested on: Daudi (Burkitt Lymphoma) cells; assay: Intracellular Lactate Accumulation Assay (Lactate-Glo); assay type: cell-based, human
Procedure: Intracellular lactate accumulation after a 2 h treatment with compounds of the present invention was measured in Daudi (Burkitt Lymphoma) cells using the Lactate-Glo Assay (Promega).
Daudi cells were seeded at 7,500 cells per well in 150 μL of growth medium (RPMI-1640 with 2 mM GlutaMAX+10% FBS) in clear, 96-well, flat-bottom microplates, and incubated overnight (37° C., 5% CO2). Compounds of the present invention were added using an INTEGRA VIAFLO 96 (8 point, 3-fold serial dilution, top concentration 1, 10, or 20 μM, 0.4% final DMSO concentration). After a 2 h incubation (37° C., 5% CO2) microplates containing cells were washed twice with 150 μL ice-cold PBS, resuspended in 25 μL ice-cold PBS containing 12.5 μL 0.6N HCl, and placed on a microplate shaker for 5 min to lyse the cells. Following lysis, 12.5 μL 1M Trizma base was added to neutralize the suspension, and microplates were returned to the microplate shaker for 1 min. Plates were sealed and stored at −20° C. until further processing. On the day of the assay, microplates were thawed for 45 min at room temperate and 50 μL Lactate Detection Reagent (prepared as specified by manufacturer) was added to each well. Microplates were placed on a plate shaker for 1 min and incubated at room temperature for 1 h. Luminescence was measured using a BioTek Cytation 5 Multi-Mode Reader. Curve fitting and calculation of EC50 was performed using GraphPad Prism.
In addition, Daudi human lymphoma cells were treated with a titration of Compound 67A for 4 h, then intracellular lactate was measured via LactateGlo (FIG. 2). Compound 67A treatment elevates intracellular lactate (FIGS. 3-5). […] Inhibiting MCT function in glycolytic cancer cells leads to an accumulation of intracellular lactate that impairs glycolysis and inhibits tumor cell growth, thereby making MCTs an attractive target for cancer therapy. Compound 67A inhibits the import of MCT ligands into cells, and induces dose-dependent intracellular lactate accumulation that correlates with cytotoxicity. MCT4 expression inversely correlates with lactate accumulation and the extent of Compound 67A cytotoxicity in cells.

[2] = molecular target: T1, MCT1/BSG complex (Homo sapiens, UniProt P53985); assay: Microscale thermophoresis (MST) direct binding; details: purified hexahistidine-tagged MCT1/BSG complex, read-out: Kd, binding to MCT1/basigin
T1 sequence (P53985 1-500): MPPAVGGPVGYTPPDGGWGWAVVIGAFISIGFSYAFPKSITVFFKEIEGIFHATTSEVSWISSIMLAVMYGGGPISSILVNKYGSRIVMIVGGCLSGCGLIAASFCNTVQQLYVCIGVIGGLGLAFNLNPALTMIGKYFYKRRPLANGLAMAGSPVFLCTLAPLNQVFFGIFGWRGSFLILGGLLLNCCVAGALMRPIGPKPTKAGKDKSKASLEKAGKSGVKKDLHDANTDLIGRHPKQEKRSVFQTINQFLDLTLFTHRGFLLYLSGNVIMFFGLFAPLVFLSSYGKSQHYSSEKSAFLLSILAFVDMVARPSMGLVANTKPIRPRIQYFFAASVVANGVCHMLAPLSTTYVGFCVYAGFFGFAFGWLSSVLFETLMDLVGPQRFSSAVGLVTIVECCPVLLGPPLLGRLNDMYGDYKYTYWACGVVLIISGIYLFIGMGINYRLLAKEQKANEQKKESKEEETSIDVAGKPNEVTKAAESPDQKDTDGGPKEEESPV
T1 sequence (P35613 140-385 partner limits assumed): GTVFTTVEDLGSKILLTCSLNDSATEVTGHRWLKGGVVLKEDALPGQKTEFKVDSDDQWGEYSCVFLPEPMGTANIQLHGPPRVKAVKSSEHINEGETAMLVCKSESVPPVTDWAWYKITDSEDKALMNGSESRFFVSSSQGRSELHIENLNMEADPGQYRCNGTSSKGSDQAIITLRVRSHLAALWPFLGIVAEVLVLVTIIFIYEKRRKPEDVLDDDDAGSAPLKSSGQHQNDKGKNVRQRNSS
Description: Microscale thermophoresis (MST) monitors the solution phase change in protein fluorescence and mobility in response to a temperature gradient created with an infrared laser. The method is compatible with detergent solubilized proteins and enables measurement of direct ligand binding.
Purified hexahistidine-tagged MCT1/BSG complex was mixed with a hexahistidine interacting fluorescent dye and MST was monitored as a function of compound concentration.

[3] = tested on: SU8686; assay: Compound 67A sensitivity of CRISPR screen cell line SU8686; assay type: cell-based; details: Homo sapiens, SU.86.86; SU8686, Pancreatic Cancer
Description: (§1) Three cell lines with varying sensitivities to Compound 67A were utilized in the CRISPR screen (Table 3, FIG. 11).

[4] = tested on: T47D; assay: Compound 67A sensitivity / cell growth inhibition of CRISPR screen cell line T47D; assay type: cell-based
Description: as §1
Screen hits (FDR<0.2) were identified using the drugZ algorithm (FIG. 13). MCT4 was the most significant hit consistent between the SU8686 and T47D cell lines, sensitizing both lines to Compound 67A treatment.

[5] = tested on: Raji lymphoma cells; assay: Seahorse XF ECAR and OCR measurement; assay type: cell-based; details: Seahorse XF Analyzer
Procedure: The utilization of glycolysis and oxidative phosphorylation (OXPHOS) were measured by the extracellular acidification rate (ECAR) and oxygen consumption rate (OCR), respectively, in Raji lymphoma cells via the Seahorse XF Analyzer.

[6] = tested on: Pfeiffer; assay: Compound 67A sensitivity of CRISPR screen cell line Pfeiffer; assay type: cell-based; details: Homo sapiens, Lymphoma
Description: as §1

- pIC50 ([1]; Daudi human lymphoma cells, 4 h treatment, LactateGlo, read-out: induces lactate accumulation, IC50): 6.43
- pEC50 ([1]; Homo sapiens, Daudi cells, 2 h treatment, intracellular lactate accumulation, read-out: LactateGlo EC50): 6.00 to 6.82
- pKd [2]: 7.05
- pIC50 [3]: < 4.70
- pIC50 ([4]; Homo sapiens, T47D, Breast Cancer): 5.23
- pIC50 [6]: 6.28
Structure (SMILES): CC(C)OC(=O)Nc1ccc(-c2cnc([C@H]3CC[C@H](NC(=O)OC(C)C)CC3)s2)c(S(=O)(=O)NC(C)(C)C)c1 [Compound 67A]
- effect of MCT4 knockout on cell growth inhibition ([4]; T47D cells, MCT4 knockout): enhanced Compound 67A-mediated cell growth inhibition
- extracellular acidification rate (ECAR) [5]: dose-dependent decrease in ECAR
- oxygen consumption rate (OCR) [5]: concomitant increase in OCR
